{"source": "patent US20260263429A1", "about": "“INHIBITORS OF CA 2+/CALMODULIN-DEPENDENT PROTEIN KINASE II (CAMKII) THAT DO NOT INHIBIT LONG-TERM POTENTIATION (LTP) INDUCTION AND THERAPEUTIC USES THEREOF” (The Regents of the University of Colorado, A Body Corporate, priority 2023, published 2026)", "key": {"[1]": {"tested_on": "CaMKIIα binding to GST-GluN2B-c", "details": "4 mM ADP or AS105", "method": "(§1) In a series of exemplary methods, an in vitro kinase assay was used where purified CaMKIIα is incubated at 30° C. with GST-GluA1 alongside ATP. CaMKIIα normally phosphorylates S831 on the GluA1 subunit and this phosphorylation can be measured as a readout of CaMKIIα enzymatic activity (see e.g., FIG. 8B). […] In another exemplary method, binding of purified CaMKIIα to immobilized GST-GluN2B-c was induced by Ca^2+/CaM in the presence of a vehicle (none), 4 mM ADP or with […] AS105. […] At the same time, two exemplary methods were performed to observe ionomycin or chemical LTP (cLTP) induced co-localization of CaMKII and GluN2B either in HEK293 cells co-expressing GFP-CaMKII and mCherry-2BC or dissociated rat hippocampal cultures expressing GFP-CaMKII and mCh-PSD95 intrabody. HEK293 cells, incubating with vehicle or 10 μM AS105, were subjected to ionomycin. Hippocampal cultures, also incubating with either vehicle or 10 μM AS105, were treated with a chemical LTP (cLTP) stimulus (e.g., 100 μM glutamate, 10 μM glycine for 45 seconds). Confocal microscopy images were taken before and after each stimulus.\n(§2) One possible mechanism by which AS283 could enhance GluN2B binding more than ATP is by suppressing CaMKII-mediated phosphorylation of GluN2B at S1303, as this phosphorylation within the CaMKII binding site on GluN2B reduces CaMKII binding.\nBound CaMKII was measured via immunoblot."}, "purified CaMKIIα [2]": {"molecular_target": "T1, purified CaMKIIα (Homo sapiens, UniProt Q9UQM7)", "test": "In vitro kinase reactions with purified CaMKIIα (GluA1 S831, T286, GluN2B S1303 phosphorylation)", "format": "biochemical", "design": "made in house; host or cells: baculovirus/Sf9 (CaMKIIα); BL21 bacteria (CaM)", "details": "GST-GluA1 S831 phosphorylation, 30° C., half-maximal response, four experiments; read-out: Km value of ATP (to activate CaMKII)", "method": "as §1\nTherefore, in another exemplary method, the ability of AS283 to selective inhibit CAMKII enzymatic activity without interfering with its binding to GluN2B was tested. In a first method, in vitro kinase reactions were performed at 30° C. in 1 mM ATP measuring purified CaMKIIα phosphorylation of GST-GluA1 S831 with varying concentrations of AS283 (0.41-10 μM).\nas §2\nIn vitro phosphorylation assays. CaMKII-mediated phosphorylation of GluA1 S831 was measured by in vitro kinase reaction with purified GST-GluA1 c-terminal tail. Reactions contained 40 nM CaMKII (or water for negative controls), 1 μM GST-GluA1, 50 mM PIPES pH 7.1, 2 mM CaCl2), 10 mM MgCl2, 1 μM calmodulin, 1-4 mM ATP, and 1 PM of okadaic acid. Reactions were done at 30° C. for 20 s; reactions were stopped by adding SDS-loading buffer and incubation in a boiling water bath for 5 min. GST, phospho-S831, CaMKII, phospho-T286, or phospho-S1303 were detected in the samples by immunoblot analysis.\nKm and Ki determination. The inhibition constant Ki was calculated using the Cheng-Prusoff equation for competitive inhibition: Ki=IC50/(1+[ATP]/Km)."}, "purified CaMKIIα [3]": {"molecular_target": "T1, purified CaMKIIα", "details": "read-out: previously published Km values of CaMKII for ATP; cited from earlier work"}, "[4]": {"tested_on": "CaMKII movement to excitatory synapses", "test": "cLTP-induced CaMKII movement to excitatory synapses in the presence of soluble oligomeric Aβ", "format": "cell-based", "details": "0.5 μM Aβ, 45 minutes prior to cLTP"}}, "note": "Like-named read-outs stand apart in the source and are kept apart here."}
{"compound": "Nc1ncnc2c1ncn2[C@@H]1O[C@H](COP(=O)(O)OP(=O)(O)O)[C@@H](O)[C@H]1O", "note": "[ADP]", "values": [{"measurement": "Ca2+/CaM-induced binding of CaMKIIα to immobilized GST-GluN2B-c versus vehicle (none)", "setting": "[1]", "result": "induced binding"}]}
{"compound": "Nc1ncnc2c1ncn2[C@@H]1O[C@H](COP(=O)(O)OP(=O)(O)OP(=O)(O)O)[C@@H](O)[C@H]1O", "note": "[ATP]", "values": [{"measurement": "Km", "setting": "purified CaMKIIα [2]", "result": 33.3, "unit": "µM"}, {"measurement": "Km", "setting": "purified CaMKIIα [3]", "result": "8 to 127", "unit": "µM"}]}
{"compound": "C[C@@H](c1ccc(-c2ccccc2)c(F)c1)c1cc(/N=C(\\N)N2CCOCC2)on1", "note": "[rimacalib]", "values": [{"measurement": "rescue of Aβ-blocked cLTP-induced movement of CaMKII to the synapses", "setting": "[4]; inhibitor 10 μM", "result": "rescued"}]}
{"compound": "Aβ: Amyloid beta (1-42) peptide purchased from Anaspec, soluble oligomeric preparation", "values": [{"measurement": "effect of Aβ on cLTP-induced movement of CaMKII to the synapses", "setting": "[4]", "result": "blocks cLTP induced movement of CaMKII to the synapses"}]}
